Source: PMC12692861, “Biotin-Linked Ursolic Acid Conjugates as Selective Anticancer Agents and Target-Identification Tools for Cancer Therapy” (Molecules, 2025)

Tests used:
HT-1376 = assay: MTT antiproliferative assay; format: cell-based, human; conditions: for IC50: Homo sapiens, HT-1376, MTT, 72 h, read-out: IC50 ± SD, HT-1376; for SI (selectivity index), HT-1376: IC50 UROtsa / IC50 HT-1376
Method: The IC50 values indicate that 5c is effective across multiple bladder cancer cell lines (Figure 2 and Table 2).
The antiproliferative activities of various compounds examined in this report were measured using the MTT (3-[4,5-dimethylthiazol-2-yl]-2,5-diphenyl-tetrazolium bromide) reduction assay, as previously described. Briefly, cells were seeded at 2 × 10^3 cells per well in a 96-well plate and cultured overnight. The cells were then treated with different doses (5 µM, 10 µM, 15 µM, 20 µM, 25 µM, 30 µM, 35 µM, 40 µM in DMSO) for 72 h. Viability of the treated cultures was estimated by conversion of MTT to the insoluble formazan after 3h incubation at 37 °C and 5% CO2. The purple-colored formazan crystals were dissolved in DMSO, and absorbance was recorded at wavelengths 570/640 nm using the Bio-Rad Benchmark Plus Microplate Reader. The percent of viable cells was calculated ODtreated cells/ODcontrol cell wells × 100.

T24 cells = assay: ROS estimation with H2DCFDA; format: cell-based, human; conditions: T24, 24 h, all tested concentrations (5–40 µM)
Method: (§1) Since 5c was not toxic to non-tumorigenic cells, such as MCF12A and UROtsa, these cells were excluded from experiments aimed at identifying the broad mechanism of cytotoxicity. A common mechanism by which these antioxidants induce cytotoxicity in tumor cells is by generating Reactive Oxygen Species (ROS) selectively in fast-growing tumor cells. The levels of ROS generated by 5c exposed cells were evaluated with the oxidation of 2′,7′-dichlorodihydrofluorescein diacetate (H2DCFDA). It is a cell-permeant fluorescent probe used for detecting ROS production (Thermo Scientific Inc., Waltham, MA, USA). […] Figure 3 illustrates the quantification of intracellular ROS levels in four bladder cancer cell lines, 5637, T24, HT-1376, and MB49, following treatment with UA and its biotin-conjugated derivative, compound 5c.
(§2) The relative levels of intracellular ROS produced in untreated and drug-treated cells were analyzed by fluorimetry using the fluorescent probe H2DCFDA (Sigma-Aldrich, #D6883, St. Louis, MI, USA), as described previously. Briefly, cells cultured in a 96-well plate at 1 × 10^4 cells per well were treated with drugs of interest for 24 h rinsed with sterile PBS to remove excess drugs, and incubated with 10 μM DCFDA for 30 min at 37 °C and 5% CO2. Following three rinses with PBS, the fluorescence intensity was recorded at excitation: 485/20, emission: 528/20 using a BioTek Synergy HTX Multimode fluorescence plate reader (Agilent Technologies, Inc., Santa Clara, CA, USA), and the data were represented as percentage change compared to the respective untreated control.
(§3) Figure 3 Estimation of oxidative stress: Treatment with UA or 5c increased ROS levels in various bladder cancer cells. ROS levels were estimated at 24 h using DCFDA. The relative fluorescence unit (RFU) was normalized to that observed in untreated cells and expressed as a percent increase. Data are Means ± SD, (n = 4). Relative significance, expressed as p-value are calculated based on one-way ANOVA.

MB49 cells = assay: ROS estimation with H2DCFDA; format: cell-based, murine; conditions: MB49, 24 h; for ROS levels: 5–40 µM
Method: as §1, §2, §3

[1] = test system: Coiled-coil domain-containing protein; assay: Streptavidin pulldown proteomics (LC-MS/MS), 5637 cells; format: binding, human; conditions: 5637, 50 µM
Method: (§4) We used proteomics to identify potential molecular targets of 5c. A pulldown assay with streptavidin-agarose-coated magnetic beads was performed. Briefly, 5637 and MB49 cells were incubated with 50 µM 5c for 10 min and 1 h. After incubation, the cells were rinsed three times with cold phosphate-buffered saline (PBS), and cell lysates were prepared and clarified by centrifugation to remove cellular debris, including nuclei. The clarified lysates were incubated with streptavidin-coated magnetic beads to selectively bind biotinylated contents. Bound proteins were separated from unbound proteins through thorough bead washing. Proteins attached to the beads were eluted and analyzed on an Orbitrap Fusion Tribrid mass spectrometer (Thermo Scientific, New York, NY, USA) coupled with an Ultimate 3000 nano-UPLC system. Samples were trapped on a PepMap100 C18 trap column (5 µm, 0.3 × 5 mm) and separated on a PepMap RSLC C18 column (2 µm, 75 µm × 150 mm) using a gradient from 2 to 40% acetonitrile with 0.1% formic acid over 120 min at […] and 40 °C. MS data were acquired in positive mode using data-dependent acquisition (DDA), with precursor scans at 120,000 FWHM (400–2000 m/z), and MS/MS scans in top-speed mode (3 s cycle) using HCD fragmentation (NCE 32%). Proteins were identified and quantified based on peptide spectral matches (PSMs), and fold enrichment compared to controls was calculated to evaluate interaction strength.
(§5) The 5637 and MB49 cells were cultured and treated with higher concentrations of 5c (50 µM) for short period of times (10 min & 60 min) followed by whole cell lysis (WCL) preparation of both treated and untreated cells using modified RIPA buffer [NaCl (100mM), TrisCl (20mM, pH 7.4), EDTA (10 mM), TritonX-100 (0.5%), Glycerol (5%), Protease inhibitor cocktail (1x)] with gentle continuous rotation. The protein content of each WCL was estimated using Pierce™ BCA Protein Assay kit (Thermo-Scientific # 23225). The 100 µL of resuspended Dynabeads™ MyOne™ Streptavidin C1 (Invitrogen # 65001) were washed with PBST (PBS with 0.01% Tween™20) in a magnet stand as recommended in the manufacturer’s instructions. The washed beads were incubated with 200 µg of each WCL in separate tubes at room temperature for 2 h in a gentle end-over-end mixing. After incubation, beads were washed 3–5 times with PBST (0.01% Tween-20) on a magnetic stand and beads were decanted by after spinning and magnetization. The samples were stored at −80 °C till further analysis using LC-MS/MS by the Proteomics and Mass Spectrometry Core Laboratory of Augusta University.

DNA topoisomerase [2] = assay: as above; format: binding, human; conditions: 5637, 50 µM
Method: as §4, §5

[3] = test system: Eukaryotic initiation factor 4A (eIF4A); assay: as above; format: binding, human; conditions: 5637, 50 µM
Method: as §4, §5

[4] = test system: Eukaryotic translation initiation factor 2 (eIF2); assay: as above; format: binding, human; conditions: 5637, 50 µM
Method: as §4, §5

[5] = test system: Coiled-coil domain-containing protein; assay: Streptavidin pulldown proteomics (LC-MS/MS), MB49 cells; format: binding, murine; conditions: MB-49, 50 µM
Method: as §4, §5

[6] = biological target: D-3-phosphoglycerate dehydrogenase (Mus musculus, UniProt Q61753); assay: as above; format: binding, murine; conditions: MB-49, 50 µM
Method: as §4, §5

DNA topoisomerase [7] = assay: as above; format: binding, murine; conditions: MB-49, 50 µM
Method: as §4, §5

Chain of D-3-phosphoglycerate dehydrogenase (Q61753 whole entry): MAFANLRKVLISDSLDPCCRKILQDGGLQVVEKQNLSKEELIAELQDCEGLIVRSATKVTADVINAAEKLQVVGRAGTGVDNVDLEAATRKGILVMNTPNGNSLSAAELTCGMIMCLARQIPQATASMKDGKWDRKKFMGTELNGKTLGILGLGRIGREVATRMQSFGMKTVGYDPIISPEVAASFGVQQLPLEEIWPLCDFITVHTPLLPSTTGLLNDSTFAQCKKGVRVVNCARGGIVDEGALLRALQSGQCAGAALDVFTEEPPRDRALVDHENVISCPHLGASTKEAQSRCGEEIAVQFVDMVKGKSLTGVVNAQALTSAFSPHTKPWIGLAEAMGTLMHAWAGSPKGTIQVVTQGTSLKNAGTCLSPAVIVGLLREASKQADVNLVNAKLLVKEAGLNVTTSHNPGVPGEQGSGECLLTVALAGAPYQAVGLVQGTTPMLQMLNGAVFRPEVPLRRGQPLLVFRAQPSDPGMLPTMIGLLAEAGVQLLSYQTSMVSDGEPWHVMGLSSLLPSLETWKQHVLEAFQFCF

| SMILES | IC50 (HT-1376) [µM] | SI (selectivity index), HT-1376 (HT-1376) | ROS levels (T24 cells) | ROS levels (MB49 cells) | ROS response relative to UA (MB49 cells; 30–40 µM) | Fold Change 10 min/Ctrl [1] | Fold Change 1 h/Ctrl [1] | Fold Change 10 min/Ctrl (DNA topoisomerase [2]) | Fold Change 1 h/Ctrl (DNA topoisomerase [2]) | Fold Change 10 min/Ctrl [3] | Fold Change 1 h/Ctrl [3] | Fold Change 10 min/Ctrl [4] | Fold Change 1 h/Ctrl [4] | Fold Change 10 min/Ctrl [5] | Fold Change 1 h/Ctrl [5] | Fold Change 10 min/Ctrl [6] | Fold Change 1 h/Ctrl [6] | Fold Change 10 min/Ctrl (DNA topoisomerase [7]) | Fold Change 1 h/Ctrl (DNA topoisomerase [7]) |
| --- | --- | --- | --- | --- | --- | --- | --- | --- | --- | --- | --- | --- | --- | --- | --- | --- | --- | --- | --- |
| CC1CCC2(C(=O)OCCCCOC(=O)CCCCC3SCC4NC(=O)NC43)CCC3(C)C(=CCC4C5(C)CCC(O)C(C)(C)C5CCC43C)C2C1C [Compound 5c, 4-((5-((3aS,4S,6aR)-2-Oxohexahydro-1H-thieno [3,4-d]imidazol-4-yl)pentanoyl)oxy) butyl 3-hydroxy-urs-12-en-28-oate] | 12.7 ± 0.4 | 4.96 | comparable increases in ROS levels | concentration-dependent increase in ROS levels | more robust ROS response | 0 | 2 | 0.08 | 0.11 | 22 | 19 | 14 | 7 | 0 | 0 | 0.8 | 1.6 | 1 | 1.75 |
| C[C@H]1[C@H](C)CC[C@]2(C(=O)O)CC[C@]3(C)C(=CC[C@@H]4[C@@]5(C)CC[C@H](O)C(C)(C)[C@@H]5CC[C@]43C)[C@H]12 [UA, Ursolic acid] | 21.9 ± 1.14 | 3.06 | comparable increases in ROS levels | concentration-dependent increase in ROS levels |  |  |  |  |  |  |  |  |  |  |  |  |  |  |  |
